Values quoted from earlier work, collected in patent US20070149500A1, “Compounds, compositions, and methods” (priority 2003, published 2007).

Test system: A549 cells
Details: data provided by National Cancer Institute

SMILES | GI50
O=c1[nH]cc(F)c(=O)[nH]1 [5-fluorouracil] | 1000 nM
CC(=O)O[C@H]1C(=O)[C@@]2(C)[C@H]([C@H](OC(=O)c3ccccc3)[C@]3(O)C[C@H](OC(=O)[C@H](O)[C@@H](NC(=O)c4ccccc4)c4ccccc4)C(C)=C1C3(C)C)[C@]1(OC(C)=O)CO[C@@H]1C[C@@H]2O [paclitaxel] | 4 nM
NC(=O)NO [hydroxyurea] | 500000 nM
